# Assay results published in US7973036B2, “2-methyl-5-imino-benzo[D][1 ,3]oxazin[5-B]pyrazole compound, preparation and use thereof” (Qingdao Huanghai Pharmaceutical Co., Ltd, priority 2008, dated 2011).
# Entries after “also recorded” stand apart in the source; their conditions may differ.
# Columns and labels:
# [1] = Anti-DPPH free radical test (spectrophotometry at 517 nm); assay type: biochemical; conditions: for DPPH free radical scavenging ability with the reaction time / Hydrolysis in the reaction liquid with the reaction time: 30-150 min; for Hydrolysis in the reaction liquid with the reaction time: 95% ethanol, pH 7.5, room temperature; for DPPH free radical scavenging ability E, one value per sample (mean of the five concentrations) / DPPH free radical scavenging ability V / DPPH free radical scavenging ability, comparison between samples / DPPH free radical scavenging ability E / DPPH free radical scavenged by one molecular of compound: 30 min
# Excerpt: Anti-DPPH Free Radical Test
# 2,2-diphenyl-1-picrylhydrazyl (DPPH) free radical spectrophotometry is a simple method for screening antioxidants, the principle of which is using the characteristic absorption peak of DPPH solution at 517 nm. When free radical scavengers existed, single electron pairing between free radical scavenger and DPPH allowed the absorption of DPPH disappeared, and its decoloring degree and accepted electron number present as quantitative relation, and the antioxidant activity of samples can be evaluated through the amount of cleared DPPH, so the spectrophotometry can be used for quantitative analysis.
# DPPH was accurately weighed and placed in a volumetric flask, and diluted to 100 ml with 95% ethanol. The absorbance (A) of DPPH was measured at 517 nm.
# DPPH standard curve was shown in FIG. 1, the linear equation of which was as follows: y=0.219x−0.0285; r=0.9994.
# DPPH was accurately weighed and placed in a 100 ml volumetric flask, and diluted to 100 ml with 95% ethanol to produce the DPPH solution.
# Preparation of Test Drug Solution: the Test Drug was Accurately Weighed and Placed in a 100 ml volumetric flask, dissolved with 20 ml of 95% ethanol, adjusted to pH 7.5 and diluted to 100 ml with 95% ethanol.
# 5.0 ml of DPPH solution and 2.0 ml test drug solution were taken and placed in a 10 ml volumetric flask, fully shaken at room temperature for a certain time followed by determination of absorption value (A) at 517 nm.
# Formula for calculating DPPH free radical scavenging ability of test drug, E (mgDPPH/mg):
# Formula for calculating DPPH free radical scavenging ability of test drug, V (mmolDPPH/mmol): […]
# [2] = tested on: cerebral ischemia reperfusion model of middle cerebral artery occlusion (MCAO); assay: Cerebral ischemia reperfusion model of middle cerebral artery occlusion (MCAO), suture method; assay type: in vivo, SD rats; conditions: for Variation value of water content in brain (%) / brain tissue MDA content / brain tissue SOD activity / Scores of neurological defect symptoms / Cerebral infarction area (%) / Cerebral infarction area (%) (table title: brain injury): X ± SD; for Cerebral infarction area (%): Table 5; for Cerebral infarction area (%) (table title: brain injury): Table 6, brain injury
# Experimental: Cerebral ischemia reperfusion model of middle cerebral artery occlusion (MCAO) was established in SD rats using the suture method of internal carotid artery. Test rats were administrated once 0.5 hours after ischemia reperfusion, then once every 2 hours, for totally three times. Neurological defect symptoms were observed 48 hours after cerebral ischemia.
# [3] = test drug C 0.152 (Edaravone), 0.153 (Compound 1, 2), 0.159 (Compound 3) mg/100 ml
# [4] = test drug C 0.304 (Edaravone), 0.305 (Compound 1, 2), 0.318 (Compound 3) mg/100 ml
# [5] = test drug C 0.608 (Edaravone), 0.610 (Compound 1, 2), 0.635 (Compound 3) mg/100 ml
# [6] = test drug C 1.215 (Edaravone), 1.220 (Compound 1, 2), 1.270 (Compound 3) mg/100 ml
# [7] = test drug C 2.430 (Edaravone), 2.440 (Compound 1, 2), 2.540 (Compound 3) mg/100 ml
# [8] = Nimodipine 0.4 mg/kg, three administrations, n=10
# [9] = TR high dose group (6.0 mg/kg), P<0.001
# [10] = TR 1.5 mg/kg, three administrations, n=7
# [11] = TR 3.0 mg/kg, three administrations, n=8
# [12] = TR 6.0 mg/kg, three administrations, n=8
compound,measurement,setting,value
"2-methyl-benzo[d][1,3]oxazin[5-b]pyrazole-5-one [Compound 1]",DPPH free radical scavenging ability with the reaction time,[1],gradually increased
same,Hydrolysis in the reaction liquid with the reaction time,[1],gradually hydrolyzed into Compound 3
same,"DPPH free radical scavenging ability E, one value per sample (mean of the five concentrations)",[1],1.687 mgDPPH/mg
same,DPPH free radical scavenging ability V,[1],0.856 mmolDPPH/mmol
same,"DPPH free radical scavenging ability, comparison between samples",[1],one-eighth of Compound 3
same,DPPH free radical scavenging ability E,[1]; [3],1.650 mgDPPH/mg
same,DPPH free radical scavenging ability E,[1]; [4],1.481 mgDPPH/mg
same,DPPH free radical scavenging ability E,[1]; [5],1.252 mgDPPH/mg
same,DPPH free radical scavenging ability E,[1]; [6],2.262 mgDPPH/mg
same,DPPH free radical scavenging ability E,[1]; [7],1.792 mgDPPH/mg
same,"DPPH free radical scavenging ability, comparison with Compound 3",[1]; at 150 min,equivalent with Compound 3
"Cc1cc(=O)n(-c2ccccc2C#N)[nH]1 [Compound 3, 1-(2-cyanophenyl)-3-methylpyrazol-5-one]",DPPH free radical scavenged by one molecular of compound,[1],1.942 molecular of DPPH free radical
same,"DPPH free radical scavenging ability E, one value per sample (mean of the five concentrations)",[1],3.510 mgDPPH/mg
same,DPPH free radical scavenging ability V,[1],1.942 mmolDPPH/mmol
same,"DPPH free radical scavenging ability, comparison between samples",[1],the largest; also recorded: slightly stronger than Edaravone
same,DPPH free radical scavenging ability E,[1]; [3],3.067 mgDPPH/mg
same,DPPH free radical scavenging ability E,[1]; [4],3.215 mgDPPH/mg
same,DPPH free radical scavenging ability E,[1]; [5],2.770 mgDPPH/mg
same,DPPH free radical scavenging ability E,[1]; [6],4.032 mgDPPH/mg
same,DPPH free radical scavenging ability E,[1]; [7],4.464 mgDPPH/mg
"CC1=NN(c2ccccc2)C(=O)C1 [Edaravone, edaravone, reference compound]",DPPH free radical scavenged by one molecular of compound,[1],1.657 molecular of DPPH free radical
same,"DPPH free radical scavenging ability E, one value per sample (mean of the five concentrations)",[1],3.752 mgDPPH/mg
same,DPPH free radical scavenging ability V,[1],1.657 mmolDPPH/mmol
same,DPPH free radical scavenging ability E,[1]; [3],3.222 mgDPPH/mg
same,DPPH free radical scavenging ability E,[1]; [4],3.195 mgDPPH/mg
same,DPPH free radical scavenging ability E,[1]; [5],3.322 mgDPPH/mg
same,DPPH free radical scavenging ability E,[1]; [6],4.785 mgDPPH/mg
same,DPPH free radical scavenging ability E,[1]; [7],4.237 mgDPPH/mg
"COCCOC(=O)C1=C(C)NC(C)=C(C(=O)OC(C)C)C1c1cccc([N+](=O)[O-])c1 (centres unmarked) [Nimodipine, nimodipine, reference compound]",Variation value of water content in brain (%),"[2]; Nimodipine 0.4 mg/kg, n=7",1.6 ± 0.59 %
same,brain tissue MDA content,"[2]; Nimodipine 0.4 mg/kg, n=7",7.6 ± 1.28 nmol/mgprot
same,brain tissue SOD activity,"[2]; Nimodipine 0.4 mg/kg, n=7",114.8 ± 16.4 U/mgprot
same,Scores of neurological defect symptoms,"[2]; Table 4 series, Nimodipine 0.4 mg/kg, three administrations, 48 hours after cerebral ischemia, n=10",1.2 ± 0.41
same,Cerebral infarction area (%),[2]; [8],6.7 ± 6.30^#& %
same,Cerebral infarction area (%) (table title: brain injury),[2]; [8],12.8 ± 12.09^#& %
same,Scores of neurological defect symptoms,"[2]; Table 7 series, Nimodipine 0.4 mg/kg, n=7",1.3 ± 0.86
"Cc1cc2oc(=N)c3ccccc3n2n1 [TR, 2-methyl-5-imino-benzo[d][1,3]oxazin[5-b]pyrazole]",DPPH free radical scavenging ability with the reaction time,[1],gradually increased
same,Hydrolysis in the reaction liquid with the reaction time,[1],gradually hydrolyzed into Compound 3
same,"DPPH free radical scavenging ability E, one value per sample (mean of the five concentrations)",[1],0.419 mgDPPH/mg
same,DPPH free radical scavenging ability V,[1],0.212 mmolDPPH/mmol
same,DPPH free radical scavenging ability E,[1]; [3],0.409 mgDPPH/mg
same,DPPH free radical scavenging ability E,[1]; [4],0.368 mgDPPH/mg
same,DPPH free radical scavenging ability E,[1]; [5],0.310 mgDPPH/mg
same,DPPH free radical scavenging ability E,[1]; [6],0.561 mgDPPH/mg
same,DPPH free radical scavenging ability E,[1]; [7],0.445 mgDPPH/mg
same,Variation value of water content in brain (%),"[2]; TR 1.5 mg/kg, n=7",2.1 ± 1.08 %
same,brain tissue MDA content,"[2]; TR 1.5 mg/kg, n=7",6.6 ± 1.30 nmol/mgprot
same,brain tissue SOD activity,"[2]; TR 1.5 mg/kg, n=7",107.1 ± 15.5 U/mgprot
same,Variation value of water content in brain (%),"[2]; TR 3.0 mg/kg, n=8",2.0 ± 1.01 %
same,brain tissue MDA content,"[2]; TR 3.0 mg/kg, n=8",6.5 ± 0.81 nmol/mgprot
same,brain tissue SOD activity,"[2]; TR 3.0 mg/kg, n=8",121.6 ± 16.8 U/mgprot
same,Variation value of water content in brain (%),"[2]; TR 6.0 mg/kg, n=9",1.2 ± 0.55 %
same,brain tissue MDA content,"[2]; TR 6.0 mg/kg, n=9",5.0 ± 1.10 nmol/mgprot
same,brain tissue SOD activity,"[2]; TR 6.0 mg/kg, n=9",132.7 ± 21.0 U/mgprot
same,MDA content compared with the model group,[2]; [9],significantly decreased
same,brain injury compared with the model group,[2]; [9],significantly reduced
same,cerebral infarction area compared with the model group,[2]; [9],significantly reduced
same,water content in brain compared with the model group,[2]; [9],significantly reduced
same,SOD activity compared with the model group,"[2]; TR high dose group (6.0 mg/kg), P=0.007",significantly increased
same,cerebral infarction area compared with the model group,"[2]; TR low dose group (1.5 mg/kg), P=0.044",significantly reduced
same,water content in brain compared with the model group,"[2]; TR low dose group (1.5 mg/kg), P=0.086",No obvious difference
same,MDA content compared with the model group,"[2]; TR low dose group (1.5 mg/kg), P=0.211",No obvious difference
same,SOD activity compared with the model group,"[2]; TR low dose group (1.5 mg/kg), P=0.826",No obvious difference
same,cerebral infarction area compared with the model group,"[2]; TR medium dose group (3.0 mg/kg), P<0.001",significantly reduced
same,brain injury compared with the model group,"[2]; TR medium dose group (3.0 mg/kg), P=0.001",significantly reduced
same,water content in brain compared with the model group,"[2]; TR medium dose group (3.0 mg/kg), P=0.039",significantly reduced
same,MDA content compared with the model group,"[2]; TR medium dose group (3.0 mg/kg), P=0.141",No obvious difference
same,SOD activity compared with the model group,"[2]; TR medium dose group (3.0 mg/kg), P=0.157",No obvious difference
same,Scores of neurological defect symptoms,"[2]; Table 4 series, TR 1.5 mg/kg, three administrations, 48 hours after cerebral ischemia, n=7",1.6 ± 0.75
same,Scores of neurological defect symptoms,"[2]; Table 4 series, TR 3.0 mg/kg, three administrations, 48 hours after cerebral ischemia, n=8",1.1 ± 0.44
same,Scores of neurological defect symptoms,"[2]; Table 4 series, TR 6.0 mg/kg, three administrations, 48 hours after cerebral ischemia, n=8",1.0 ± 0.46
same,neurological defect symptoms compared with the model group,"[2]; Table 4 series, TR high dose group (6.0 mg/kg), P<0.001",significantly reduced
same,neurological defect symptoms compared with the model group,"[2]; Table 4 series, TR low dose group (1.5 mg/kg), P=0.001",significantly reduced
same,neurological defect symptoms compared with the model group,"[2]; Table 4 series, TR medium dose group (3.0 mg/kg), P<0.001",significantly reduced
same,Cerebral infarction area (%),[2]; [10],26.5 ± 13.24 %
same,Cerebral infarction area (%),[2]; [11],17.4 ± 10.05 %
same,Cerebral infarction area (%),[2]; [12],6.7 ± 6.30^#& %
same,Cerebral infarction area (%) (table title: brain injury),[2]; [10],33.6 ± 16.08 %
same,Cerebral infarction area (%) (table title: brain injury),[2]; [11],22.7 ± 12.10 %
same,Cerebral infarction area (%) (table title: brain injury),[2]; [12],8.1 ± 5.68^#& %
same,Scores of neurological defect symptoms,"[2]; Table 7 series, TR 1.5 mg/kg, n=7",1.9 ± 0.84
same,Scores of neurological defect symptoms,"[2]; Table 7 series, TR 3.0 mg/kg, n=8",1.8 ± 0.70
same,Scores of neurological defect symptoms,"[2]; Table 7 series, TR 6.0 mg/kg, n=9",1.0 ± 0.58
same,neurological defect symptoms compared with the model group,"[2]; Table 7 series, TR high dose group (6.0 mg/kg), P<0.001",significantly relieved
same,neurological defect symptoms compared with the model group,"[2]; Table 7 series, TR low dose group (1.5 mg/kg), P=0.001",significantly relieved
same,neurological defect symptoms compared with the model group,"[2]; Table 7 series, TR medium dose group (3.0 mg/kg), P<0.001",significantly relieved
same,onset dose,"[2]; improvement of neurological defect symptoms, infarction area, brain injury, brain edema, lipid peroxidation in cerebral ischemia-reperfusion animals",3 mg/kg
